Experimental data taken from patent publication EP1137645B1, “ALPHA-METHYLBENZYL-CONTAINING THIOUREA INHIBITORS OF HERPES VIRUSES CONTAINING A […] GROUP” (Wyeth, priority 1998, dated 2000).
Values after ≈ are worked out from the molar mass of the structure shown. Where two headings read alike, the source gives them in different places.

Tests used:
VZV strain Ellen = test: VZV antiviral (ELISA) assay; type: cell-based
How it was run: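 HFF cells infected with VZV Ellen at multiplicity below 0.1 overnight, then mixed infected/uninfected cells seeded with compound in DMEM/2% FBS and incubated three days at 37°C, 5% CO2.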

[1] = system: HCMV recombinant mutant virus whose genome contains the prokaryotic beta-glucuronidase gene; test: microbe, parasite or virus in culture; type: cell-based, human cytomegalovirus; conditions: Human betaherpesvirus 5, Fibroblast
How it was run: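 Antiviral IC50 estimated from reduced reporter activity across compound amounts: lysates prepared 96 h after infection were tested with p-nitrophenyl- or methylumbelliferyl-glucuronide. Cells were human foreskin fibroblasts, infected alongside inhibitor with HCMV (e.g. RV145) expressing viral promoter-driven beta-glucuronidase.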

HSV- I = test: HSV antiviral (ELISA) assay; type: cell-based; conditions: read-out: IC50 (ug/ml) HSV
How it was run: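 IC50 from fluorescence versus untreated control in a cell ELISA: anti-glycoprotein D antibody, β-galactosidase-conjugated secondary, 4-methyl umbelliferone read at 365/450 nm. Vero cells (2% FBS DMEM) received compound 30 min pre-infection with HSV-1 at MOI 0.006, fixed ~24 h post-infection.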

[2] = Human alphaherpesvirus 3, HFF, read-out: IC50 (ug/ml) VZV, VZV strain Ellen, HFF cells, ELISA
[3] = read-out: IC50 ug/ml HCMV, HCMV, human foreskin fibroblasts
[4] = Human alphaherpesvirus 3, HFF, read-out: % inhibition 10 ug/ml VZV
[5] = Human alphaherpesvirus 3, HFF, read-out: IC50 (ug/ml) VZV
[6] = Human alphaherpesvirus 3, read-out: % inhibition 10 ug/ml VZV, 10 ug/ml, VZV strain Ellen, HFF cells, ELISA
[7] = Human alphaherpesvirus 3, VZV strain Ellen, HFF cells, ELISA, read-out: IC50 (ug/ml) VZV

| Compound | IC50 (VZV strain Ellen; [2]) [µg/mL] | IC50 [1, 3] [µg/mL] | IC50 (HSV- I; Vero) [µg/mL] | inhibition at 10 µg/mL (VZV strain Ellen; [4]) [%] | IC50 (VZV strain Ellen; [5]) [µg/mL] | IC50 (HSV- I; HSV- I, Vero cells, ELISA) [µg/mL] | inhibition at 10 µg/mL (VZV strain Ellen; [6]) [%] | IC50 (VZV strain Ellen; [7]) [µg/mL] | IC50 ([1]; read-out: IC50 ug/ml HCMV) [µg/mL] |
| --- | --- | --- | --- | --- | --- | --- | --- | --- | --- |
| CC(NC(=S)Nc1ccc(NC(=O)c2nccc3ccccc23)cc1)c1cc2ccccc2o1 (stereo not shown) [Example 977, Isoquinoline-1-carboxylic acid {4-[3-(1-benzofuran-2-yl-ethyl)-thioureido]-phenyl}-amide] | 0.05 (≈ 0.107 µM) | > 10 | > 10 | – | – | – | – | – | – |
| CN(C)c1c(Cl)cccc1NC(=S)Nc1ccc(NC(=O)c2c(F)cccc2F)cc1 [Example 504, N-{4-[3-(3-Chloro-2-dimethylamino-phenyl)-thioureido]-phenyl}-2,6-difluoro-benzamide] | – | 2 (≈ 4.34 µM) | – | 99 | 4.5 (≈ 9.76 µM) | 6 (≈ 13 µM) | – | – | – |
| CSc1ccc(NC(=S)Nc2ccc(NC(=O)c3ccccc3F)cc2)cc1Cl [Example 847, N-{4-[3-(3-Chloro-4-methylsulfanyl-phenyl)-thioureido]-phenyl}-2-fluoro-benzamide] | – | 0.3 (≈ 0.673 µM) | – | 65 | > 10 | 0.4 (≈ 0.897 µM) | – | – | – |
| COc1cc(OC)c(NC(=S)Nc2ccc(NC(=O)c3cccc(OC(F)(F)F)c3)cc2)cc1Cl [Example 256, N-{4-[3-(5-Chloro-2,4-dimethoxy-phenyl)-thioureido]-phenyl}-3-trifluoro-methoxy-benzamide] | – | 9 (≈ 17.1 µM) | – | 15 | > 10 | 2 (≈ 3.8 µM) | – | – | – |
| CN(C)c1ccc(NC(=S)Nc2ccc(NC(=O)c3ccccc3F)cc2)cc1Cl [Example 852, N-{4-[3-(3-Chloro-4-dimethylamino-phenyl)-thioureido]-phenyl}-2-fluoro-benzamide] | – | 0.6 (≈ 1.35 µM) | – | 80 | 6.5 (≈ 14.7 µM) | 4 (≈ 9.03 µM) | – | – | – |
| CN1CCC(N(C)c2ccc(NC(=S)Nc3ccc(NC(=O)c4c(F)cccc4F)cc3)cc2Cl)CC1 [Example 340, N-[4-(3-{3-Chloro-4-[methyl-(1-methyl-piperidin-4-yl)-amino]-phenyl}-thioureido)-phenyl]-2,6-difluoro-benzamide] | – | 0.25 (≈ 0.459 µM) | – | 99 | 4 (≈ 7.35 µM) | 3 (≈ 5.51 µM) | – | – | – |
| COc1ccc(C(C)NC(=S)Nc2ccc(NC(=O)c3ccccc3F)cc2)cc1 (stereo not shown) [Example 777, 2-Fluoro-N-(4-{3-[1-(4-methoxy-phenyl)-ethyl]-thioureido}-phenyl)-benzamide] | > 7.5 | 1.7 (≈ 4.01 µM) | > 10 | – | – | – | – | – | – |
| COc1cc(C)c(Cl)cc1NC(=S)Nc1ccc(NC(=O)c2ccccc2F)cc1Cl [Example 458, N-{3-Chloro-4-[3-(5-chloro-2-methoxy-4-methyl-phenyl)-thioureido]-phenyl}-2-fluoro-benzamide] | – | > 10 | – | 25 | > 10 | 0.06 (≈ 0.125 µM) | – | – | – |
| COc1ccc(C(=O)Nc2ccc(NC(=S)Nc3cc(Cl)c(OC)cc3OC)cc2)cc1 [Example 121, N-{4-[3-(5-Chloro-2,4-dimethoxy-phenyl)-thioureido]-phenyl}-4-methoxy-benzamide] | – | 6 (≈ 12.7 µM) | – | 0 | > 10 | 0.3 (≈ 0.636 µM) | – | – | – |
| COc1cc(C)c(Cl)cc1NC(=S)Nc1ccc(NC(=O)c2ccccc2F)cc1 [Example 849, N-{4-[3-(5-Chloro-2-methoxy-4-methyl-phenyl)-thioureido]-phenyl}-2-fluoro-benzamide] | – | > 10 | – | 38 | > 10 | > 10 | – | – | – |
| COc1cc(OC)c(NC(=S)Nc2ccc(NC(=O)c3cccc(NC(C)=O)c3)cc2)cc1Cl [Example 134, 3-Acetylamino-N-{4-[3-(5-chloro-2,4-dimethoxy-phenyl)-thioureido]-phenyl}-benzamide] | – | 4 (≈ 8.02 µM) | – | 50 | > 10 | > 10 | – | – | – |
| O=C(Nc1ccc(NC(=S)Nc2cccc(F)c2)cc1)c1ccccc1F [Example 962, 2-Fluoro-N-{4-[3-(3-fluoro-phenyl)-thioureido]-phenyl}-benzamide] | – | – | – | – | – | > 10 | 10 | > 10 | > 10 |
| O=C(Nc1ccc(NC(=S)Nc2ccc(Cl)c(C(F)(F)F)c2)cc1)c1ccccc1F [Example 244, N-{4-[3-(4-Chloro-3-trifluoromethyl-phenyl)-thioureido]-phenyl}-2-fluoro-benzamide] | – | > 10 | – | 18 | > 10 | > 10 | – | – | – |
| Cc1ccc([C@H](C)NC(=S)Nc2ccc(NC(=O)c3ccccc3F)cc2)cc1 [Example 1011, 2-Fluoro-N-{4-[3-((1S)-1-p-tolyl-ethyl)-thioureido]-phenyl}-benzamide] | 0.55 (≈ 1.35 µM) | 6.8 (≈ 16.7 µM) | > 10 | – | – | – | – | – | – |
| Cc1ccc(NC(=S)Nc2ccc(NC(=O)c3ccccc3F)cc2)cc1Cl [Example 231, N-{4-[3-(3-Chloro-4-methyl-phenyl)-thioureido]-phenyl}-2-fluoro-benzamide] | – | > 10 | – | 11 | > 10 | 0.5 (≈ 1.21 µM) | – | – | – |
| COc1ccc(NC(=S)Nc2ccc(NC(=O)c3ccccc3F)cc2)cc1C(F)(F)F [Example 998, 2-Fluoro-N-{4-[3-(4-methoxy-3-trifluoromethyl-phenyl)-thioureido]-phenyl}-benzamide] | – | – | – | – | – | 3 (≈ 6.47 µM) | – | 5 (≈ 10.8 µM) | > 10 |
| O=C(Nc1ccc(NC(=S)Nc2cc(Cl)c(Cl)c(Cl)c2)cc1)c1ccccc1F [Example 937, 2-Fluoro-N-{4-[3-(3,4,5-trichloro-phenyl)-thioureido]-phenyl}-benzamide] | – | – | – | – | – | 0.7 (≈ 1.49 µM) | 25 | > 10 | 2 (≈ 4.27 µM) |
| CC(NC(=S)Nc1ccc(NC(=O)c2cc3ccccc3o2)cc1)c1ccc(F)cc1 (stereo not shown) [Example 980, Benzofuran-2-carboxylic acid (4-{3-[1-(4-fluoro-phenyl)-ethyl]-thioureido}-phenyl)-amide] | – | > 10 | – | – | 0.15 (≈ 0.346 µM) | > 10 | – | – | – |
| COc1ccc(C(C)NC(=S)Nc2ccc(NC(=O)c3ccccc3F)cc2)cc1Cl (stereo not shown) [Example 1000, N-(4-{3-[1-(3-Chloro-4-methoxy-phenyl)-ethyl]-thioureido}-phenyl)-2-fluoro-benzamide] | 6 (≈ 13.1 µM) | 2 (≈ 4.37 µM) | > 10 | – | – | – | – | – | – |
| O=C(CN1CCOCC1)Nc1ccc(NC(=S)Nc2ccc(NC(=O)c3ccccc3F)cc2)cc1Cl [Example 367, N-(4-{3-[3-Chloro-4-(2-morpholin-4-yl-acetylamino)-phenyl]-thioureido}-phenyl)-2-fluoro-benzamide] | – | > 10 | – | 20 | > 10 | > 10 | – | – | – |
| COc1ccccc1C(=O)Nc1ccc(NC(=S)NC(C)c2cc3ccccc3o2)cc1 (stereo not shown) [Example 1018, N-{4-[3-(1-Benzofuran-2-yl-ethyl)-thioureido]-phenyl}-2-methoxy-benzamide] | 0.09 (≈ 0.202 µM) | > 10 | > 10 | – | – | – | – | – | – |
| COc1cc(OC)c(NC(=S)Nc2ccc(NC(=O)c3ccccc3N)cc2)cc1Cl [Example 181, 2-Amino-N-{4-[3-(5-chloro-2,4-dimethoxy-phenyl)-thioureido]-phenyl}-benzamide] | – | > 10 | – | 60 | > 10 | 1.5 (≈ 3.28 µM) | – | – | – |
| O=C(O)c1cccc(NC(=S)Nc2ccc(NC(=O)c3ccco3)cc2)c1 [Example 964, 3-(3-{4-[(Furan-2-carbonyl)-amino]-phenyl}-thioureido)-benzoic acid] | – | – | – | – | – | > 10 | 0 | > 10 | > 10 |
| CC(NC(=S)Nc1ccc(NC(=O)c2ccccc2F)cc1)c1ccccc1 (stereo not shown) [Example 589, 2-Fluoro-N-{4-[3-(1-phenyl-ethyl)-thioureido]-phenyl}-benzamide] | – | – | – | – | – | > 10 | – | 0.36 (≈ 0.915 µM) | 7 (≈ 17.8 µM) |
